Drawing on ChEMBL document CHEMBL1201862, “PubChem BioAssay data set” (2004), this text covers IC50 and EC50 for four molecules.

Calls of active or inactive are those of the source.

In assay [1] the target is T1, Sentrin-specific protease 6 (Homo sapiens, UniProt Q9GZR1).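 Also: Luminescence-based dose-response confirmatory assay of SENP6 inhibition, following up an ultra-high-throughput screen.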
T1 sequence (Q9GZR1 whole entry): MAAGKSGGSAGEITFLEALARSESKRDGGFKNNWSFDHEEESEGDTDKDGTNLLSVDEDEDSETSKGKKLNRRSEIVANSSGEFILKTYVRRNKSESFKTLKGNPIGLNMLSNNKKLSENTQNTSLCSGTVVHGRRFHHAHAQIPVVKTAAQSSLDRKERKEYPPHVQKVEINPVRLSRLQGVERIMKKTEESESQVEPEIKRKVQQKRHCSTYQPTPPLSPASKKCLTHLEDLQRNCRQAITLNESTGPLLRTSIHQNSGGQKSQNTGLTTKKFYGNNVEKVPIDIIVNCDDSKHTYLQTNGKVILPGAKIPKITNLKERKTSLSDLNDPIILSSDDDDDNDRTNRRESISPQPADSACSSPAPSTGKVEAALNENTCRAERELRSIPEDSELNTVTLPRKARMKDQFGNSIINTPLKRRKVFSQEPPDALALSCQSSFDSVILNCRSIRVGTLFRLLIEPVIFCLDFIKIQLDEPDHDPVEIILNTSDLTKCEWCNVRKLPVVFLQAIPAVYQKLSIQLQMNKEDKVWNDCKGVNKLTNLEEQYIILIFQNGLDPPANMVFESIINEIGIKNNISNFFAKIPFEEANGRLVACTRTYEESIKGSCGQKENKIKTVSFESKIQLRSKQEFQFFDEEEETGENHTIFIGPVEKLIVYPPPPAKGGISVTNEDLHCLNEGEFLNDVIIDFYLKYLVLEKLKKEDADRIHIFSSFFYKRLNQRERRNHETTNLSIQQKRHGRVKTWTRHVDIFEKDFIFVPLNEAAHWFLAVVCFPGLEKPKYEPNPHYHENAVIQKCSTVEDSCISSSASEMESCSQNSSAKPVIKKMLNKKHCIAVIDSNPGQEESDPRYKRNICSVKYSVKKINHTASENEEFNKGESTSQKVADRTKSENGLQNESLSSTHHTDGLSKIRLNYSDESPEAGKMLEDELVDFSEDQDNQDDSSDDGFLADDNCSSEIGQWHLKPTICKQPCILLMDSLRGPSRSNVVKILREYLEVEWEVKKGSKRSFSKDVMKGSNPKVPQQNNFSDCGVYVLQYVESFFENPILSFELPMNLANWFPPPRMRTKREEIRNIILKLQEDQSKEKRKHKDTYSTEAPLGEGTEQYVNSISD
It is filed as functional.

The nature of assay [2]: inhibitors of intracellular T. cruzi replication, confirmation, NIH3T3 host cells, beta-gal luminescence (AID 2044).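 Also: intracellular parasites grown in NIH/3T3 mouse fibroblasts as host cells; luminescent beta-galactosidase reporter signal from transgenic T. cruzi replicating inside host cells; inhibitors lower the luminescence signal.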 It is filed as functional, cell-based.
Another assay addresses T2, Hexokinase HKDC1 (Homo sapiens, UniProt Q2TB90).
T2 sequence (Q2TB90 whole entry): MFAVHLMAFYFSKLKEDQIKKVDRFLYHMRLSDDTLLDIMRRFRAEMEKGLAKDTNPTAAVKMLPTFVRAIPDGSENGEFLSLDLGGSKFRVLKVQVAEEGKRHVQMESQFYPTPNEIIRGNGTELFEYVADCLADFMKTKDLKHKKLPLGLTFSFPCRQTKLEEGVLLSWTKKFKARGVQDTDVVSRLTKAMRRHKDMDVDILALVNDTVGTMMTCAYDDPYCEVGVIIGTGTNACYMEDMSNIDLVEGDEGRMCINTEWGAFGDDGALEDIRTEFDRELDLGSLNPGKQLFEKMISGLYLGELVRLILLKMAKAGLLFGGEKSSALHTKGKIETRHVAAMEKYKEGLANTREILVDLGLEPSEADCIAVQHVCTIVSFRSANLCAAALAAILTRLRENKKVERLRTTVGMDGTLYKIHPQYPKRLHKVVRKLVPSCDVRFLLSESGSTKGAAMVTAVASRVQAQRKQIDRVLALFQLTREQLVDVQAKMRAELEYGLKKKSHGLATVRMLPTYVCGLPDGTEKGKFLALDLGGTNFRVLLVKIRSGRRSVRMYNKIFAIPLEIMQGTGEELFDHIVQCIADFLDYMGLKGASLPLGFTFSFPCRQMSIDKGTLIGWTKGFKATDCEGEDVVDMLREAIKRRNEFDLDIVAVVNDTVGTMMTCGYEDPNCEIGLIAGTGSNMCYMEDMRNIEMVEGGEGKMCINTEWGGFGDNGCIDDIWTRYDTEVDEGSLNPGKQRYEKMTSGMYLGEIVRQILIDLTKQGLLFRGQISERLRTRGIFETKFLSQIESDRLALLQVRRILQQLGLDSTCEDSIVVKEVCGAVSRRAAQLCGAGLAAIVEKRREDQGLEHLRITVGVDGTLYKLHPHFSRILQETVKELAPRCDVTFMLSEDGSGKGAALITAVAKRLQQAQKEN
Briefly: HKDC1 hexokinase inhibitors, dose response, biochemical, W721R variant (AID 504729). It is filed as functional.

Assay [3] has as its target 1-phosphatidylinositol 4,5-bisphosphate phosphodiesterase beta-3 (Homo sapiens, UniProt Q01970). Briefly: Fluorescence-based biochemical high throughput dose response assay to identify inhibitors of phospholipase C isozymes (PLC-B3).

Sequence of 1-phosphatidylinositol 4,5-bisphosphate phosphodiesterase beta-3 (Q01970 whole entry): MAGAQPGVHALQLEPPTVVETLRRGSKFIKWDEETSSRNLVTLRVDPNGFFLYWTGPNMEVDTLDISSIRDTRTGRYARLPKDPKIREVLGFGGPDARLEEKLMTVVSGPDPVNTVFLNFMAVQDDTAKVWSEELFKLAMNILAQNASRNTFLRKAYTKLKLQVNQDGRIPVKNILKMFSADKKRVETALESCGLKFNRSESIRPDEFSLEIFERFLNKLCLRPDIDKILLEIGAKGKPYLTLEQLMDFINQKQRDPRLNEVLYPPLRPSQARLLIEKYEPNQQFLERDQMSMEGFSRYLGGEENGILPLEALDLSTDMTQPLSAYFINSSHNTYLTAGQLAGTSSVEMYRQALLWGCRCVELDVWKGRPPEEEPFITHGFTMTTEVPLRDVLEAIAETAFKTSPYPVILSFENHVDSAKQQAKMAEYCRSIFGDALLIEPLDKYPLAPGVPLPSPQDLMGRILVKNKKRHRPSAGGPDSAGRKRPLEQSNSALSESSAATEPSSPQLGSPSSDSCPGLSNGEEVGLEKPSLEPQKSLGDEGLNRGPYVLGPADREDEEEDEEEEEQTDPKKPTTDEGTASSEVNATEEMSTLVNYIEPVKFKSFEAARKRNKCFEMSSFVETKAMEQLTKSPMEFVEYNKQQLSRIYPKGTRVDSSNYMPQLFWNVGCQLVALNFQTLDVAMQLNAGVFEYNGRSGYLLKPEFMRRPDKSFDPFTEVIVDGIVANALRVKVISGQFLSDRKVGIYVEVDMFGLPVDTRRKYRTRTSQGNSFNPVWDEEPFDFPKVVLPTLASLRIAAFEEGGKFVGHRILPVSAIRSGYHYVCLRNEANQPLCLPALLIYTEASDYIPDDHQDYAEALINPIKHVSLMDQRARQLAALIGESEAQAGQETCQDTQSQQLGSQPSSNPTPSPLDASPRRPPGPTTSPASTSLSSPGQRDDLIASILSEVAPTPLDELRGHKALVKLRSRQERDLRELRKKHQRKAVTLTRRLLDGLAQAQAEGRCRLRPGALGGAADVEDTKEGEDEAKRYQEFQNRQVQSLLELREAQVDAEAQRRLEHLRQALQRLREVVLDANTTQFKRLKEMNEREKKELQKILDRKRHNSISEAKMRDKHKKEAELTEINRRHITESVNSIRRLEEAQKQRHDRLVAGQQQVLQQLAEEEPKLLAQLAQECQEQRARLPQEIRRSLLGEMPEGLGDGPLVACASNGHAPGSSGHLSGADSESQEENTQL

As usually defined, the IC50 is the concentration needed to halve the response being measured. For the molecule `O=C(/C=C/c1ccco1)Nc1ccc(Oc2ccccc2)cc1`, the IC50 in assay [1] was 5.23 µM (active).

Broadly, the EC50 is the concentration at which the effect is half-maximal. As for `CC1CC(=O)c2c(cc3c(-c4c(O)cc(O)c5c(O)c6c(cc45)OC(C)CC6=O)c(O)cc(O)c3c2O)O1` (configuration not stated) [CEPHALOCHROMIN], the EC50 in assay [2] was 0.373 µM (active).

`COc1ccc(S(=O)(=O)Nc2cc(SCC(=O)O)c(O)c3ccccc23)cc1`: the IC50 in assay [1] was 3.81 µM (active); on Hexokinase HKDC1, 12 µM (active).

On to `O=C1C(Nc2ccc(O)cc2)=C/C(=N/S(=O)(=O)c2cccs2)c2ccccc21`, for which the results for the half-maximal inhibitory concentration (IC50) (on Hexokinase HKDC1; in assay [3]) were 8.31 µM (active) and > 40.8 µM (inactive), respectively. Moreover, the concentration giving a half-maximal response (EC50) in assay [2] is 0.55 µM (active).
